What is called Ki is a dissociation constant, usually derived from enzyme kinetics or from competition with a known ligand. A low value points to higher affinity.

This passage reports Ki results from patent publication US8163732B2, “Tricyclic heteroaryl compounds useful as inhibitors of Janus kinase” (Vertex Pharmaceuticals Incorporated, priority 2005, dated 2012).

One assay deals with JAK-2 (Homo sapiens, UniProt O60674). Kind of assay: JAK-2 inhibition assay. It counts as biochemical.
The next assay has as its target T1, JAK-3 (Homo sapiens, UniProt P52333).
T1 sequence (P52333 1-1124): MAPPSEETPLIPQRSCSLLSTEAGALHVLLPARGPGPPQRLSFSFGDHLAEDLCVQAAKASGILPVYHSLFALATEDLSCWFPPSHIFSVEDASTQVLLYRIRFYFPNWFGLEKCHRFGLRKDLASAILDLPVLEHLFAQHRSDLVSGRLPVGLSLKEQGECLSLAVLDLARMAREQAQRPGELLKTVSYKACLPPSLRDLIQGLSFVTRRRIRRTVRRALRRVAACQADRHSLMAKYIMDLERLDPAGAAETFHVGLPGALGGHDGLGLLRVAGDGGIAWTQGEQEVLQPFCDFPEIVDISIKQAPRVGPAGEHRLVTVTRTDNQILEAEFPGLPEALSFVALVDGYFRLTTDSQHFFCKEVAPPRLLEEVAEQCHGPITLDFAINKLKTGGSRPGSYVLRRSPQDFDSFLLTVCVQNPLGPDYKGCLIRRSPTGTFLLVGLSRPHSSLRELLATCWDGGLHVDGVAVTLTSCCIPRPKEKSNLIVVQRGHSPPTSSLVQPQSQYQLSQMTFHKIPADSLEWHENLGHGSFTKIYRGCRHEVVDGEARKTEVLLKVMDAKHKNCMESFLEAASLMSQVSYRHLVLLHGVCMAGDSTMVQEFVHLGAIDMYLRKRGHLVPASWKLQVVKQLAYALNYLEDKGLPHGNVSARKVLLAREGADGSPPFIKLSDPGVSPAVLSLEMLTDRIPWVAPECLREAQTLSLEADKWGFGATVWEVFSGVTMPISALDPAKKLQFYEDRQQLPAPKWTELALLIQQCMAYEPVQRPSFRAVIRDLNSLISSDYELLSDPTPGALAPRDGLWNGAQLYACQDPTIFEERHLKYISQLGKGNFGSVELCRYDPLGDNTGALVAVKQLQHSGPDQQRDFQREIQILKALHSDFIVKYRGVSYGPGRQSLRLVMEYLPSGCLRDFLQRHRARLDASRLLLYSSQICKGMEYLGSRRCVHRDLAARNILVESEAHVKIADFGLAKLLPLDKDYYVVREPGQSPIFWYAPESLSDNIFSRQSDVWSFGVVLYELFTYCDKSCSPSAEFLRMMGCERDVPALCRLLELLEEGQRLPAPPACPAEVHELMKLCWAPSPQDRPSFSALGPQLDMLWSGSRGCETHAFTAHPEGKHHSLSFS
Briefly: JAK-3 inhibition assay. Type of assay: biochemical. As to the method:
Compounds were screened for their ability to inhibit JAK using the assay shown below. Reactions were carried out in a kinase buffer containing 100 mM HEPES (pH 7.4), 1 mM DTT, 10 mM MgCl2, 25 mM NaCl, and 0.01% BSA.
Substrate concentrations in the assay were 5 μM ATP (200 μCi/μmole ATP) and 1 μM poly(Glu)4Tyr. Reactions were carried out at 25° C. and 1 nM JAK-3.
To each well of a 96 well polycarbonate plate was added 1.5 μL of a candidate JAK-3 inhibitor along with 50 μL of kinase buffer containing 2 μM poly(Glu)4Tyr and 10 μM ATP. This was then mixed and 50 μL of kinase buffer containing 2 nM JAK-3 enzyme was added to start the reaction. After 20 minutes at room temperature (25° C.), the reaction was stopped with 50 μL of 20% trichloroacetic acid (TCA) that also contained 0.4 mM ATP. The entire contents of each well were then transferred to a 96 well glass fiber filter plate using a TomTek Cell Harvester. After washing, 60 μL of scintillation fluid was added and ^33P incorporation detected on a Perkin Elmer TopCount. After removing the mean background values for all of the data points, the data were fit using Prism software to obtain a Ki value (app).

Sequence of JAK-2 (O60674 whole entry): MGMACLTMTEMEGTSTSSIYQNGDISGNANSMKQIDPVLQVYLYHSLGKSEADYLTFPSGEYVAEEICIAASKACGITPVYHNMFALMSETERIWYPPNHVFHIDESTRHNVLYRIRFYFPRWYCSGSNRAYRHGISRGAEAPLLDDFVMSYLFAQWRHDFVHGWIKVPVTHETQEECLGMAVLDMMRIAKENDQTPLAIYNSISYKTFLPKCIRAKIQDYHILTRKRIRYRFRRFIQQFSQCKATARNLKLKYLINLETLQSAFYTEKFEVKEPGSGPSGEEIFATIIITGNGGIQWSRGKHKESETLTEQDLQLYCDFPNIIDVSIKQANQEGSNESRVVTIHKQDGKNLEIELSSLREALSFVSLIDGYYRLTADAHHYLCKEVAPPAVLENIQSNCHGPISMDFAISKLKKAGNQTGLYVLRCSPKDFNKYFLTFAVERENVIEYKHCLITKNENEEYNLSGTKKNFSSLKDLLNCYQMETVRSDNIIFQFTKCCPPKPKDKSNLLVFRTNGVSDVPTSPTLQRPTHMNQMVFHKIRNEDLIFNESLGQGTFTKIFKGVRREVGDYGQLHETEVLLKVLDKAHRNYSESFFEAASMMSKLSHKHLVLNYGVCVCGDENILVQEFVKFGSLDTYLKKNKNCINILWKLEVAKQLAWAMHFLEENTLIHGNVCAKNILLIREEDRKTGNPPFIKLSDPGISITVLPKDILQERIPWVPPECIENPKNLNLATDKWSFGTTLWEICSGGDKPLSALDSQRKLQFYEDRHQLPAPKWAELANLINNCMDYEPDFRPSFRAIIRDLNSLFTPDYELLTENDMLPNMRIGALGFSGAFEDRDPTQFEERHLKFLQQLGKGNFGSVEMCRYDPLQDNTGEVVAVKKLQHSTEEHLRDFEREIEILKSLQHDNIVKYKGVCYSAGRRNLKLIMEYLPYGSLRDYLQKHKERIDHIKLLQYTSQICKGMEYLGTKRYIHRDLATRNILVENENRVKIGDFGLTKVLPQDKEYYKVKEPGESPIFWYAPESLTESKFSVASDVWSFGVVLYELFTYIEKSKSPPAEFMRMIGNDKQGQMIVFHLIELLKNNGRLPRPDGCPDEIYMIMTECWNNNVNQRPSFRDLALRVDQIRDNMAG

For `Cc1cc(C2Nc3ccccc3-c3ccnc4[nH]cc2c34)sc1C` (stereo not shown) [Compound 124], the inhibitory constant (Ki) at JAK-2 and at JAK-3 was 250 to 2500 nM in each case.

As to `COc1ccc(C2NC(=O)c3ccccc3-c3ccnc4[nH]cc2c34)cc1C` (stereo not shown) [Compound 129], the Ki at JAK-2 and on JAK-3 was greater than 2500 nM in each case.

As for `CC(C)Oc1ccc(C2Nc3ccccc3-c3ccnc4[nH]cc2c34)cc1` (stereo not shown) [Compound 145], the Ki at JAK-2 is less than 250 nM; on JAK-3, 250 to 2500 nM.

Regarding `O=C(OCc1ccccc1)N1CCC(C2Nc3ccccc3-c3ccnc4[nH]cc2c34)CC1` (stereo not shown) [Compound 89], the results for the Ki on JAK-2 and on JAK-3 were 250 to 2500 nM and greater than 2500 nM, respectively.

As to `Oc1c(F)cc(C2Nc3ccccc3-c3ccnc4[nH]cc2c34)cc1F` (stereo not shown) [Compound 106], the values for the Ki at JAK-2 and at JAK-3 were less than 250 nM and no more than 250 nM, respectively.

`c1ccc(C2Nc3ccccc3-c3ccnc4[nH]cc2c34)nc1` (stereo not shown) [Compound 37]: the Ki on JAK-2 and at JAK-3 was greater than 2500 nM each time.

For the molecule `Clc1ccccc1COc1cccc(C2Nc3ccccc3-c3ccnc4[nH]cc2c34)c1` (stereo not shown) [Compound 131], the Ki is less than 250 nM at JAK-2 and 250 to 2500 nM at JAK-3.

Take `Cc1cc(C2Nc3ccccc3-c3ncnc4[nH]cc2c34)ccc1O` (stereo not shown) [Compound 83]: the inhibitory constant (Ki) is less than 250 nM at JAK-2 and no more than 250 nM at JAK-3.

Take `Fc1cccc(F)c1C1Nc2ncccc2-c2ccnc3[nH]cc1c23` (stereo not shown) [Compound 47]: the inhibition constant Ki on JAK-2 and on JAK-3 was 250 to 2500 nM each time.

As for `c1cncc(C2Nc3ccccc3-c3ccnc4[nH]cc2c34)c1` (stereo not shown) [Compound 38], the Ki at JAK-2 and at JAK-3 was 250 to 2500 nM throughout.

Consider `Oc1ccc(C2Nc3ccccc3-c3ccnc4[nH]cc2c34)cc1Cl` (stereo not shown) [Compound 74], for which the results for the inhibition constant Ki at JAK-2 and on JAK-3 were less than 250 nM and no more than 250 nM, respectively.

For the molecule `COc1cc(C2Nc3ccccc3-c3ccnc4[nH]cc2c34)cc(F)c1O` (stereo not shown) [Compound 68], the Ki on JAK-2 was less than 250 nM; on JAK-3 it was no more than 250 nM.

Regarding `c1ccc2c(c1)NC(c1ccc(-n3ccnc3)cc1)c1c[nH]c3nccc-2c13` (stereo not shown) [Compound 119], the Ki at JAK-2 and at JAK-3 was 250 to 2500 nM in each case.

Regarding `COC(=O)c1ccc(C2Nc3ccccc3-c3ccnc4[nH]cc2c34)cc1` (stereo not shown) [Compound 87], the Ki at JAK-2 and on JAK-3 was greater than 2500 nM throughout.

Turning to `Oc1ccc([C@H]2Nc3ccccc3-c3ccnc4[nH]cc2c34)c(Cl)c1` [Compound 62], the inhibitory constant (Ki) on JAK-2 was less than 250 nM; on JAK-3, no more than 250 nM.

With `Oc1ccc(C2Nc3ccccc3-c3ncnc4[nH]cc2c34)cc1Br` (stereo not shown) [Compound 82], the inhibition constant (Ki) on JAK-2 was less than 250 nM; on JAK-3, no more than 250 nM.

Take `COC(=O)Nc1ccc(C2Nc3ccccc3-c3ccnc4[nH]cc2c34)cc1` (stereo not shown) [Compound 99]: the values for the Ki on JAK-2 and on JAK-3 were greater than 2500 nM and 250 to 2500 nM, respectively.

Regarding `Oc1ccc(C2Nc3ccccc3-c3ccnc4[nH]cc2c34)cc1OC(F)(F)F` (stereo not shown) [Compound 114], the inhibition constant (Ki) at JAK-2 and on JAK-3 was 250 to 2500 nM each time.

Take `O=[N+]([O-])c1cc(C2Nc3ccccc3-c3ccnc4[nH]cc2c34)ccc1O` (stereo not shown) [Compound 139]: the inhibitory constant (Ki) on JAK-2 and on JAK-3 was 250 to 2500 nM each time.

For the molecule `O=[N+]([O-])c1ccc(C2Nc3ccccc3-c3ccnc4[nH]cc2c34)cc1` (stereo not shown) [Compound 86], the inhibition constant (Ki) on JAK-2 and at JAK-3 was greater than 2500 nM throughout.

For `CCN(CC)CCOc1ccc(C2Nc3ccccc3-c3ccnc4[nH]cc2c34)cc1` (stereo not shown) [Compound 157], the Ki at JAK-2 is less than 250 nM; at JAK-3, no more than 250 nM.

On to `COc1ccc(C2NC(=O)c3ccccc3-c3ccnc4[nH]cc2c34)cc1` (stereo not shown) [Compound 126], for which the inhibition constant Ki on JAK-2 and at JAK-3 was greater than 2500 nM throughout.

For `Brc1ccc(C2Nc3ccccc3-c3ccnc4[nH]cc2c34)cc1` (stereo not shown) [Compound 153], the Ki at JAK-2 and at JAK-3 was greater than 2500 nM in each case.

Take `Fc1cccc(C(F)(F)F)c1C1Nc2ccccc2-c2ccnc3[nH]cc1c23` (stereo not shown) [Compound 34]: the Ki on JAK-2 and on JAK-3 was 250 to 2500 nM in each case.

Turning to `CCOC(=O)C1Nc2ccccc2-c2ccnc3[nH]cc1c23` (stereo not shown) [Compound 8], the Ki on JAK-2 and on JAK-3 was 250 to 2500 nM throughout.

Take `Clc1ccccc1C1Nc2ccccc2-c2ccnc3[nH]cc1c23` (stereo not shown) [Compound 17]: the inhibitory constant (Ki) on JAK-2 and at JAK-3 was 250 to 2500 nM in each case.

On to `Fc1ccc(F)c(C2Nc3ccccc3-c3ccnc4[nH]cc2c34)c1F` (stereo not shown) [Compound 30], for which the inhibition constant (Ki) was less than 250 nM on JAK-2 and no more than 250 nM at JAK-3.

With `Fc1cc(C2Nc3ccccc3-c3ccnc4[nH]cc2c34)ccc1Cl` (stereo not shown) [Compound 39], the figures for the Ki at JAK-2 and at JAK-3 were less than 250 nM and 250 to 2500 nM, respectively.

With `Fc1cc(F)c(C2Nc3ccccc3-c3ccnc4[nH]cc2c34)cc1F` (stereo not shown) [Compound 31], the Ki was less than 250 nM on JAK-2 and 250 to 2500 nM on JAK-3.

Regarding `CCOC(=O)C1(c2ccc(OC)c(F)c2)Nc2ccccc2-c2ccnc3[nH]cc1c23` (stereo not shown) [Compound 130], the figures for the Ki on JAK-2 and at JAK-3 were less than 250 nM and 250 to 2500 nM, respectively.

For the molecule `Cc1cc(C2Nc3ccccc3-c3ccnc4[nH]cc2c34)cc(C)c1O` (stereo not shown) [Compound 79], the inhibition constant (Ki) on JAK-2 and on JAK-3 was 250 to 2500 nM in each case.

For `CN1C(=O)C(c2ccc(O)cc2)c2c[nH]c3ncnc(c23)-c2ccccc21` (stereo not shown) [Compound 159], the Ki at JAK-2 is less than 250 nM; at JAK-3, no more than 250 nM.

Consider `Fc1ccc(F)c(C2Nc3ccccc3-c3ncnc4[nH]cc2c34)c1F` (stereo not shown) [Compound 56], for which the values for the Ki on JAK-2 and on JAK-3 were less than 250 nM and no more than 250 nM, respectively.

Take `Fc1ccc(C2Nc3ccccc3-c3ccnc4[nH]cc2c34)cc1` (stereo not shown) [Compound 12]: the inhibitory constant (Ki) at JAK-2 and at JAK-3 was 250 to 2500 nM each time.

Regarding `COc1cc(C2Nc3ccccc3-c3ccnc4[nH]cc2c34)cc(O)c1O` (stereo not shown) [Compound 64], the Ki on JAK-2 was less than 250 nM; on JAK-3, no more than 250 nM.

As to `Cc1ccc(C2C(=O)Nc3ccccc3-c3ncnc4[nH]cc2c34)cc1` (stereo not shown) [Compound 161], the Ki at JAK-2 is less than 250 nM; at JAK-3 it was 250 to 2500 nM.

As to `Cn1cc2c3c(ccnc31)-c1cccnc1NC2c1ccc(O)cc1` (stereo not shown) [Compound 96], the inhibitory constant (Ki) on JAK-2 was less than 250 nM; at JAK-3, 250 to 2500 nM.

As for `Cc1cc(O)ccc1C1Nc2ccccc2-c2ccnc3[nH]cc1c23` (stereo not shown) [Compound 133], the Ki at JAK-2 is less than 250 nM; at JAK-3, no more than 250 nM.

Regarding `Fc1cccc(Cl)c1C1Nc2ccccc2-c2ccnc3[nH]cc1c23` (stereo not shown) [Compound 33], the inhibition constant (Ki) on JAK-2 and at JAK-3 was 250 to 2500 nM in each case.

With `[O-][n+]1ccc(C2Nc3ccccc3-c3ccnc4[nH]cc2c34)cc1` (stereo not shown) [Compound 122], the inhibition constant Ki at JAK-2 and at JAK-3 was greater than 2500 nM each time.

On to `Oc1ccc(C2Nc3ncccc3-c3ccnc4[nH]cc2c34)cc1` (stereo not shown) [Compound 97], for which the Ki on JAK-2 is less than 250 nM; at JAK-3, no more than 250 nM.

In the case of `Oc1ccc(C2=Nc3ccccc3-c3ccnc4[nH]cc2c34)cc1OC(F)(F)F` [Compound 113], the inhibition constant Ki at JAK-2 is less than 250 nM; on JAK-3, no more than 250 nM.

Regarding `Cc1ccc(C2Nc3ccccc3-c3ccnc4[nH]cc2c34)cc1` (stereo not shown) [Compound 137], the inhibitory constant (Ki) at JAK-2 was 250 to 2500 nM; at JAK-3, greater than 2500 nM.

With `CC1=Nc2ccccc2-c2ccnc3[nH]cc1c23` [Compound 51], the Ki at JAK-2 and on JAK-3 was 250 to 2500 nM throughout.

For the molecule `Oc1ccc(C2Nc3ccccc3-c3ccnc4[nH]cc2c34)c(Cl)c1` (stereo not shown) [Compound 46], the Ki on JAK-2 was less than 250 nM; at JAK-3 it was no more than 250 nM.

`c1ccc(-c2onc3ccc(C4Nc5ccccc5-c5ccnc6[nH]cc4c56)cc23)cc1` (stereo not shown) [Compound 143]: the inhibition constant Ki on JAK-2 and at JAK-3 was greater than 2500 nM throughout.

For `c1ccc(C2Nc3ccccc3-c3ncnc4[nH]cc2c34)cc1` (stereo not shown) [Compound 3], the Ki is greater than 2500 nM at JAK-2 and 250 to 2500 nM at JAK-3.
